This assay relates to IRP2−/− mice. Put plainly: Hang-test of IRP2−/− mice on Tempo1-supplemented diet. In kind it is in vivo. The source says:
Mice: IRP2−/− mice were generated, propagated by breeding and genotyped as described in LaVaute et al., Nature Genetics, 27, 209-214 (2001). Mice used in this study have a 129S4/SvJae X C57B1/6 mixed background (specific proportions of each strain are not known). In experiments with mice of same genotype but on different diets siblings were used to minimize phenotypic variation due to differences in genetic background. Mice of different genotypes and on different diets were age and sex matched. All protocols were approved by the National Institute of Child Health and Human Development Animal Care and Use Committee, and met US National Institutes of Health guidelines for the humane care of animals. […]
Hang-test: In the hang-test, mice were allowed to grip a wire mesh that was then inverted. The length of time that a mouse could hang on to an inverted wire mesh before falling (up to a maximum of 60 seconds) was measured and recorded.
A stable nitroxide radical, Tempo1, was administered as a dietary supplement to knockout mice (IRP2−/−), and neurodegeneration was tested using the “hang test,” by which mice were allowed to grasp a wire mesh screen in an inverted position and the length of time that the mice could remain grasping the screen was measured (up to a maximum of 60 seconds). The hang test quantitatively assesses the progression of neurodegeneration in mice. […]

On to `CC1(C)CC(O)CC(C)(C)N1[O]` [Tempo1], for which the hang times entry (IRP2−/− mice on Tempo1 supplemented diet (10 mg/g of food) vs untreated knockout mice, max 60 seconds) is on record as “substantially increased”. In addition, the “protection from progressive loss of neuromuscular capability” value (IRP2−/− mice on Tempo1 supplemented diet, hang test, FIG. 1c) is listed as “significantly (p value=0.009) protected”.

Source of the values: patent US20100179188A1, “NITROXIDE RADICAL AS TREATMENT FOR NEURODEGENERATION” (Office of Technology Transfer, NIH, priority 2007, published 2010).
